“Also recorded” adds a separate entry of the source.
Columns and labels:
dogs = assay: Increase in coronary blood flow upon intravenous administration into dogs; format: in vivo, dog; settings: for Increase in coronary blood flow (Δ% ± standard error): anaesthetized dogs, intravenous (femoral vein), dose 0.1 mg/kg, circumflex branch of left coronary; for activity in increasing coronary blood flow (in words): comparison with other esters
Protocol: (b) Intravenous administration into dogs.
Increase in coronary blood flow upon intravenous administration of a test compound into dogs was tested. Compounds tested were 4-(benzothiazol-2-yl)benzylphosphonic acid ethyl isopropyl ester and, as a control, diltiazem, 4-(benzothiazol-2-yl)benzylphosphonic acid diethyl ester and 2-(benzothiazol-2-yl)-5-picolinylphosphonic acid diethyl ester.
Dogs weighing 10 to 13 kg were anaesthetized with pentobarbital sodium (35 mg/kg, intraperitoneal) and, under supportive respiration, a thoractomy was performed by removing the fourth left rib. The pericardial membrane was then incised to expose the heart. The test compound was dissolved in 50% aqueous ethanol and injected into the femoral vein. The blood flow through circumflex branch of left coronary was measured before and after the administration of drugs with an electromagnetic flowmeter (Nihon Kohden, MF-26).

[1] = Acute toxicity test in mice; settings: mouse, in vivo, ip; male ddY mice, intraperitoneal; deaths within 72 hours, method of Weil
Protocol: (§1) An acute toxicity test was carried out in male ddY mice (in groups of 5 animals, body weights 20.congruent.2 g) by the intraperitoneal administration of a test compound. The LD50 values were calculated by the method of Weil based on the number of deaths within 72 hours.

male ddY mice = assay: Acute toxicity test in mice; settings: mouse, in vivo; listed as compound of the invention
Protocol: as §1

[2] = test system: isolated guinea pig heart; assay: Action on coronary flow of the isolated guinea pig heart (Langendorff); settings: Cavia porcellus, 100 γ/ml in propylene glycol, 0.1 ml infused at 0.1 ml/min, read-out: Increase in coronary flow (Δ% ± standard error)
Protocol: (a) Action on the isolated guinea pig heart.
Male guinea-pigs with body weights from 400 to 500 g were slaughtered and promptly thoractomized. After the ascending aorta was cannulated, the heart was enucleated. By the method of Langendorff, this isolated heart was perfused with the Krebs-Henseleit fluid oxygenated with a gaseous mixture of 95% O2 and 5% CO2 at the fluid temperature of 34±1° C. and the perfusion pressure of 60 cm H2 O, and the test compound was infused. The coronary flows before and after infusion were measured and the percent gain in coronary flow was obtained. The coronary flow was measured with a square-wave electromagnetic flowmeter (Nihon Kohden, MF-26) with an extracorporeal probe (Nihon Kohden, FE) set at the top of the cannula and recorded with a multipurpose polygraph (Nihon Kohden, RM-85). The test compound was dissolved in propylene glycol to a concentration of 100 γ/ml and 0.1 ml of the solution was infused at the rate of 0.1 ml/min. For reference, the corresponding data on diltiazem is also shown.

SMILES	Increase in coronary blood flow (Δ% ± standard error) (dogs)	activity in increasing coronary blood flow (in words) (dogs; listed as asymmetric type ester of the invention)	activity in increasing coronary blood flow (in words) (dogs; listed as compound of the invention)	LD50 at 72 h [1]	acute toxicity (in words) (male ddY mice)	activation at 100 µg/mL, 0.01 mg [2]
CCOP(=O)(Cc1ccc(-c2nc3ccccc3s2)nc1)OCC [2-(benzothiazol-2-yl)-5-picolinylphosphonic acid diethyl ester, reference compound]	83.0 ± 12.3 Δ%					
CCOP(=O)(Cc1ccc(-c2nc3ccccc3s2)cc1)OCC [4-(benzothiazol-2-yl)benzylphosphonic acid diethyl ester, reference compound]	82.2 ± 5.0 Δ%					
CCOP(=O)(Cc1ccc(-c2nc3ccccc3s2)cc1)OC(C)C (centres unmarked) [4-(benzothiazol-2-yl)benzylphosphonic acid isopropyl ethyl ester]	75.3 ± 2.9 Δ%	high activity in increasing coronary blood flow in comparison with other asymmetric and cyclic esters of this type	somewhat lower in its activity of increasing coronary blood flow than the corresponding diethyl ester compound	1790 mg/kg	low acute toxicity; also recorded: lower acute toxicity than such compound	76.9 ± 24.4%
COc1ccc([C@@H]2Sc3ccccc3N(CCN(C)C)C(=O)[C@@H]2OC(C)=O)cc1 [Diltiazem, diltiazem, reference compound]	105.6 ± 14.1 Δ%			177 mg/kg		66 ± 7.1%

Source: patent US4434162A, “Phosphonic acid ester, pharmaceutical compositions containing the same and method of using the same” (Kanebo, Ltd., priority 1982, dated 1984)
